The source of these data is patent US20100229250A1, “TREATMENT AND PREVENTION OF ISCHEMIC BRAIN INJURY” (THE JOHNS HOPKINS UNIVERSITY, priority 2007, published 2010).

Entries after “also recorded” stand apart in the source; their conditions may differ.

Assay [1] has as its target T1, FP receptor (Mus musculus, UniProt P43117).
T1 construct: WT mice were post-treated orally with 10 μg/kg (n=10) or 100 μg/kg (n=8) latanoprost 30 min after reperfusion; endogenous in cells; host or cells: wild-type mice, whole animal (in vivo); FP-/- mice used as receptor-null control
The experiment in a line: Brain infarction (TTC staining) after transient ischemia (90-min MCAO), post-treatment with FP agonist. Conditions: WT mice, TTC at 96 h. Type of assay: in vivo. As to the method:
Transient ischemia protocol. WT (n=11) and FP^−/− (n=12) mice were subjected to MCAO for 90 min followed by 96 h of reperfusion (Ahmad et al., 2006a). Mice were placed under halothane anesthesia (3.0% for induction, 1.0% for maintenance) and ventilated with oxygen-enriched air via a nose cone. Body temperatures were maintained at 37.0±0.5° C. by a heating pad. The mice were subjected to the intraluminal filament technique to produce the MCAO model of transient focal cerebral ischemia as we have described previously (Ahmad et al., 2006a). Relative cerebral blood flow (CBF) was measured by laser-Doppler flowmetry (Moor instruments, Devon, England) with a flexible probe affixed to the skull over the parietal cortex supplied by the MCA (2 mm posterior and 6 mm lateral to bregma). […] During occlusion, mice were kept in a humidity-controlled, 32° C. chamber to help maintain a body core temperature of 37° C. […]
(§1) Post-treatment of mice with the FP agonist latanoprost. […] At 96 h after MCAO, neurological deficit scores and brain injury were measured. […]
Assessment of brain infarction. […] Infarct volume was assessed by 2,3,5-triphenyltetrazolium chloride (TTC) staining by an observer blinded to the treatments, as described previously (Ahmad et al., 2006a). […] The corrected volume of the infarcted hemisphere was calculated as: volume of contralateral hemisphere−(volume of ipsilateral hemisphere−volume of infarct).

The test system of assay [2] is FP receptor. Description: Neurological deficit score after transient ischemia (90-min MCAO), post-treatment with FP agonist. Type of assay: in vivo, mouse. The following applies: FP−/− mice, 100 μg/kg orally 30 min after reperfusion, scored at 96 h, mean±S.E.M., p<0.05 vs latanoprost-treated WT. As to the method:
(§2) Transient ischemia protocol. WT (n=11) and FP^−/− (n=12) mice were subjected to MCAO for 90 min followed by 96 h of reperfusion (Ahmad et al., 2006a). Mice were placed under halothane anesthesia (3.0% for induction, 1.0% for maintenance) and ventilated with oxygen-enriched air via a nose cone. Body temperatures were maintained at 37.0±0.5° C. by a heating pad. The mice were subjected to the intraluminal filament technique to produce the MCAO model of transient focal cerebral ischemia as we have described previously (Ahmad et al., 2006a). Relative cerebral blood flow (CBF) was measured by laser-Doppler flowmetry (Moor instruments, Devon, England) with a flexible probe affixed to the skull over the parietal cortex supplied by the MCA (2 mm posterior and 6 mm lateral to bregma). […] During occlusion, mice were kept in a humidity-controlled, 32° C. chamber to help maintain a body core temperature of 37° C. After 90 min of occlusion, mice were briefly re-anesthetized, the midline was reopened, and the filament was removed to establish reperfusion. After the incision was sutured, mice were again placed in the humidity- and temperature-controlled chamber for another 6 h and finally returned to their respective cages for survival up to 96 h.
(§3) Assessment of neurological deficit score. Neurological function was measured in each mouse at 96 h after reperfusion according to the following graded scoring system, as described previously (Li et al., 2004): 0=no deficit; 1=forelimb weakness and torso turning to the ipsilateral side when held by tail; 2=circling to affected side; 3=unable to bear weight on affected side; and 4=no spontaneous locomotor activity or barrel rolling.
as §1

The target in assay [3] is T1, FP receptor. The assay is described as above. Conditions: WT mice. Type of assay: in vivo. As to the method: as §2, §3, §1

T1 sequence (P43117 whole entry, the tested form may be a part): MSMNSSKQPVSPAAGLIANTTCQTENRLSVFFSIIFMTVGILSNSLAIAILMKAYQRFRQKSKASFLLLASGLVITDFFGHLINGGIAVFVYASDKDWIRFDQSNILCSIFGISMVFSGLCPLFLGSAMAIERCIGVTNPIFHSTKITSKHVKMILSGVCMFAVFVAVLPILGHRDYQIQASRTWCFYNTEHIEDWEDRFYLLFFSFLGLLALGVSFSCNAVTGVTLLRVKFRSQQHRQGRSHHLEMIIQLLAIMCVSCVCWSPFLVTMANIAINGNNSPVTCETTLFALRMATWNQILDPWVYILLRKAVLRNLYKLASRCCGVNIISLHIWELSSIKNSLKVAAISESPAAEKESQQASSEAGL

Regarding `CC(C)OC(=O)CCC/C=C\C[C@@H]1[C@@H](CC[C@@H](O)CCc2ccccc2)[C@H](O)C[C@@H]1O` [latanoprost, 13,14-dihydro-17-phenyl-18,19,20-trinor-PGF2α isopropyl ester], the “brain damage (corrected infarct volume)” value is recorded as “trend toward increased brain damage” on FP receptor [1] (10 μg/kg orally 30 min after reperfusion, vs vehicle) and “significantly larger infarct volumes; also recorded: became significant” on FP receptor [1] (100 μg/kg orally 30 min after reperfusion, p<0.05 vs vehicle). Besides, the neurological deficit score in the assay on FP receptor [2] is on record as 1.4±0.2; at FP receptor [3] (10 μg/kg orally 30 min after reperfusion, scored at 96 h (scale 0-4), mean±S.E.M., vehicle 1.8±0.2, not significant) it was 2.2±0.2; at FP receptor [3] (100 μg/kg orally 30 min after reperfusion, scored at 96 h, p<0.05 vs vehicle), “significantly increased the neurological deficit”.
